Values quoted from earlier work in patent US20210260012A1, “COMPOSITIONS FOR THE PREVENTION AND TREATMENT OF CUTANEOUS AFFECTIONS” (I.C.F. SRL, priority 2018, published 2021).

Test system: biofilms from E. coli
Conditions: at high concentrations

CC(=O)NC(CS)C(=O)O (stereo not drawn) [Acetylcysteine, α-acetamido-β-mercaptopropanoic acid]
reduction in the mass of biofilms: up to 55%
